Measurements from patent US11278555B2, “Combinational therapies for treatment of cancer comprising a bacteriochlorophyll derivative” (Yeda Research and Development Co. Ltd., priority 2016, dated 2022).

Legend:
[1] = system: orthotopic 4T1-Luc tumors; test: STL-6014 PDT and metronomic Gemzar in mice bearing 4T1-Luc tumors in the mammary pad (Scheme 1): primary tumor, survival, lung metastases, re-challenge; format: in vivo, Balb/c mice
Method: • (i) Bacteriochlorophyll Derivatives—The Bchl derivatives and RGD-conjugates thereof were provided by Steba Biotech (Rehovot, Israel). […] Concentration was verified by spectrophotometric measurement. STL-7012 was provided as dipotassium salt. Working solution was prepared by dissolving STL-7012 K^+ salt in 5% mannitol solution (1 mg/ml). […] WST11 was supplied as a powder and kept in the dark at −20° C. Stock was prepared by dissolving WST11 in DDW containing 5% glucose and 0.67% mannitol, aliquoted and lyophilized. Working solution was reconstituted with DDW and the concentration of solution was confirmed spectrophotometrically. Alternatively, Clinical WST11 (batch: P00611, and 10-130611) was supplied as lyophilized formulation. Material was dissolved in 5% dextrose, aliquoted and stored at −20° C. At the day of treatment the aliquot was thawed, filtered and the concentration of solution was confirmed spectrophotometrically. • (ii) Chemotherapeutic drugs preparation and storage—Gemcitabine (GEM, Gemzar®, Lilly) was purchased from a local pharmacy as a powder, dissolved in saline to a concentration of 38 mg/ml, aliquoted and stored at −20° C. Aliquots were thawed, diluted with saline to a desired concentration and used on the same day at a dose of 75 mg/kg. Cyclophosphamide (CTX, Endoxan®, Baxter Oncology Gmbh, Germany) was purchased from a local pharmacy. A stock solution of 20 mg/ml was prepared by dissolving in 0.9% NaCl, aliquoted and stored at −20° C. Aliquots were thawed, diluted with saline if needed to a desired concentration and used on the same day prepared at indicated doses. • (iii) Murine cell lines—Mammary luciferase (luc)-labeled 4T1 cell line (4T1-Luc) was a kind gift from Dr. Zvi Granot (Faculty of Medicine, The Hebrew University of Jerusalem, Israel); melanoma B16-F10 cell line was obtained from the American Type Culture Collection (ATCC, Manassas, Va.); bladder MB49 cell line was a kind gift from James Allison (MSKCC, New York, USA), and luc-labeled MB49-cell line was established using the murine stem cell virus (MSCV)-puromycin-luc-GFP construct (kindly provided by Dr. Emily Cheng, Human Oncology and Pathogenesis Program, MSKCC). 4T1 and MB49 cells were maintained in DMEM medium and B16-F10 cells in RPMI medium supplemented with 1 mmol/L sodium pyruvate, 10% fetal calf serum (FCS), 250 μg/ml hygromycin, 0.06 mg/ml penicillin and 0.1 mg/ml streptomycin. The cells were grown as monolayer at 37° C. in a humidified atmosphere (5% CO2, 95% air). • (iv) Murine tumor models—Female, Balb/c mice (6-8 week old) were grafted either subcutaneously (s.c.) into the right hind leg or orthotopically with 1×10^6 4T1 cells suspended in 50 or 1000 PBS. For the rechallenge study, 2×10^5 4T1 cells were orthotopically grafted. For bladder cancer model, 5×10^4 of MB49 or MB49-luciferase cell line were s.c. injected into the right flank of C57B/6 male mice (7-8 weeks old, Taconic, Hudson, N.Y.) 15 days prior to VTP treatment. For the efficacy study of VTP in immune compromised mice, the same number of MB49 cells was injected in the flank of Rag^−/− on C57B/6 background or C57B/6 male mice (7-8 week old, Jackson Laboratory, Bar Harbor, Me.). […] Whole body imaging of luciferase-transfected tumors and metastases were recorded five minutes following 75 mg Kg^−1 intraperitoneal (i.p.) injection of D-luciferin with respective filter sets. • (vi) PDT treatment protocol: 4T1-Luc cells were grafted in the mammary pad of Balb/c mice. […]

[2] = system: CD8, Treg, Teff and TCM T cell populations; test: Adaptive immune response (T cell populations) of mice bearing MB49 tumors; format: in vivo
Method: • (i) Bacteriochlorophyll Derivatives—The Bchl derivatives and RGD-conjugates thereof were provided by Steba Biotech (Rehovot, Israel). […] Concentration was verified by spectrophotometric measurement. STL-7012 was provided as dipotassium salt. Working solution was prepared by dissolving STL-7012 K^+ salt in 5% mannitol solution (1 mg/ml). […] WST11 was supplied as a powder and kept in the dark at −20° C. Stock was prepared by dissolving WST11 in DDW containing 5% glucose and 0.67% mannitol, aliquoted and lyophilized. Working solution was reconstituted with DDW and the concentration of solution was confirmed spectrophotometrically. Alternatively, Clinical WST11 (batch: P00611, and 10-130611) was supplied as lyophilized formulation. Material was dissolved in 5% dextrose, aliquoted and stored at −20° C. At the day of treatment the aliquot was thawed, filtered and the concentration of solution was confirmed spectrophotometrically. • (ii) Chemotherapeutic drugs preparation and storage—Gemcitabine (GEM, Gemzar®, Lilly) was purchased from a local pharmacy as a powder, dissolved in saline to a concentration of 38 mg/ml, aliquoted and stored at −20° C. Aliquots were thawed, diluted with saline to a desired concentration and used on the same day at a dose of 75 mg/kg. Cyclophosphamide (CTX, Endoxan®, Baxter Oncology Gmbh, Germany) was purchased from a local pharmacy. A stock solution of 20 mg/ml was prepared by dissolving in 0.9% NaCl, aliquoted and stored at −20° C. […] Whole body imaging of luciferase-transfected tumors and metastases were recorded five minutes following 75 mg Kg^−1 intraperitoneal (i.p.) injection of D-luciferin with respective filter sets. • (vi) PDT treatment protocol: 4T1-Luc cells were grafted in the mammary pad of Balb/c mice. […]

[3] = system: MB49 tumors; test: WST11 VTP, Gemzar and combination in immune compromised Rag1 KO versus WT mice bearing MB49 tumors; format: in vivo; settings: Kaplan-Meier
Method: (§1) • (i) Bacteriochlorophyll Derivatives—The Bchl derivatives and RGD-conjugates thereof were provided by Steba Biotech (Rehovot, Israel). […] Concentration was verified by spectrophotometric measurement. STL-7012 was provided as dipotassium salt. Working solution was prepared by dissolving STL-7012 K^+ salt in 5% mannitol solution (1 mg/ml). […] WST11 was supplied as a powder and kept in the dark at −20° C. Stock was prepared by dissolving WST11 in DDW containing 5% glucose and 0.67% mannitol, aliquoted and lyophilized. Working solution was reconstituted with DDW and the concentration of solution was confirmed spectrophotometrically. Alternatively, Clinical WST11 (batch: P00611, and 10-130611) was supplied as lyophilized formulation. Material was dissolved in 5% dextrose, aliquoted and stored at −20° C. […] Whole body imaging of luciferase-transfected tumors and metastases were recorded five minutes following 75 mg Kg^−1 intraperitoneal (i.p.) injection of D-luciferin with respective filter sets. • (vi) PDT treatment protocol: 4T1-Luc cells were grafted in the mammary pad of Balb/c mice. […]

[4] = system: 4T1-luc tumors at the mammary pad; test: WST11 VTP combined with CTX or Gemzar in mice bearing 4T1-luc tumors in the mammary pad (Scheme 5); format: in vivo, Balb/C mice; settings: VTP alone, 9 mg/kg WST11, 200 mW/cm^2 for 15 min
Method: as §1

[5] = 120 days follow up, monotherapy

Nc1ccn([C@@H]2O[C@H](CO)[C@@H](O)C2(F)F)c(=O)n1 [Gemzar, Gemcitabine]
primary tumor cure [1, 5]: no primary tumor cure | survival compared to control (Kaplan-Meier) [1, 5]: Extended mice survival | primary cure ([1]; Gemzar only, 75 mg/kg i.p. metronomic): 0%

CCC1c2cc3[n-]c(c(CC(=O)OC)c4nc(cc5[n-]c(cc(n2)C1C)c(C(C)=O)c5C)C(C)C4CCC(=O)[O-])c(C(=O)NCCS(=O)(=O)[O-])c3C.[K+].[K+].[Pd+2] (centres unmarked) [WST11, Palladium 3^1-oxo-15-methoxycarbonylmethyl-rhodobacteriochlorin 13^1-(2-sulfoethyl) amide dipotassium salt]
CD8 cell population in the spleen, blood and draining lymph nodes ([2]; 6 days post treatment): significant elevation | Treg populations (spleen, blood, lymph nodes) ([2]; 6 days post treatment): no significant effect | CD8 Tcell/Treg ratio ([2]; day 6 post VTP): no increase | overall survival of immune compromised (Rag1 KO) mice compared with WT mice [3]: statistically significant decrease | survival [4]: very limited survival
